# Counter-ions that a name gives are not always drawn.
# Target: T1, human recombinant GABAAR containing α5β3γ2 subunits (benzodiazepine site) (Homo sapiens, UniProt P18507+P31644)
# T1 construct: expressed in transfected cells; host or cells: mouse L(tk−) cells, dexamethasone-inducible vector pMSGneo
# Assay: In vitro radioligand binding assay (α5-GABAAR Ki)
# Conditions: inhibition of [3H]Ro15-1788 binding, membranes of L(tk−) cells expressing human α5β3γ2; read-out: α5-GABAAR Ki
# Text: Mouse L(tk^−) cells stably expressing human α1β3γ2, α2β3γ2, α3β3γ2, α5β3γ2 GABAARs generated by transfection of the individual subunits in the dexamethasone-inducible expression vector pMSGneo in mouse L(tk^−) cells (Hadingham et al., 1993, Mol. Pharmacol. 43:970-975 and 1993, Mol. Pharmacol. 44:1211-1218) were used for binding and functional assays. For certain compounds, HEK293 cells stable expressing the human α1β3γ2L, α2β3γ2L, α3β3γ2L and α5β3γ2L GABAA receptors were used to evaluate their functional effects in a SyncroPatch electrophysiology assay.
# L(tk^−) cells stably expressing human α1β3γ2, α2β3γ2, α3β3γ2, α5β3γ2 GABAARs were maintained in DMEM F12 medium supplemented with 10% Foetal Bovine Serum, 1% Penicillin/Streptomycin and 1 mg/mL Geneticin G418 in an incubator at 37° C. with a humidified atmosphere with 5% CO2.
# The affinity (Ki) of compounds for the benzodiazepine site of human recombinant GABAARs was measured by their ability to inhibit the binding of the selective benzodiazepine antagonist [^3H] Ro15-1788 ([^3H] flumazenil).
# L(tk^−) cells expressing human recombinant GABAAR containing α1β3γ2, α2β3γ2, α3β3γ2, α5β3γ2 subunits were harvested and membranes were prepared for each receptor combination in phosphate buffer (K2PO4 10 mM, pH 7.0) (Hadingham et al. (1992) Proc. Natl. Acad. Sci. USA; 89 (14): 6378-82). Protein concentration, receptor expression and the Kd of [^3H] Ro15-1788 were determined before Ki values of compounds were evaluated. For Kd evaluation, saturation binding curves were obtained by incubating membrane with various concentrations of [^3H] Ro15-1788 (82.5 Ci/mM), with nonspecific binding measured in the presence of 1 μM TP003.
# For Ki evaluation, cell membranes were incubated with 4 nM [^3H] Ro15-1788 along with a range of concentrations of test compound. Nonspecific binding was determined using 1 μM TP003. All incubations were performed for 1 hour at 4° C. in assay buffer. The total assay volume was 0.5 mL, containing 100 μg membrane protein/well α1β3γ2, α2β3γ2, α3β3γ2 and 50 μg membrane protein/well for α53γ2. Incubations were terminated by filtration and washing with ice cold Tris-HCl buffer (50 mM, pH=7.4) over Whatman GF/B filters and the radioactivity of the filters was measured using liquid scintillation counting.
# The % inhibition of [^3H] Ro15-1788 binding was plotted as a function of compound concentration and the IC50 calculated. From the IC50, the affinity (Ki) was calculated using the method of Cheng and Prusoff using the Kd values obtained for [^3H] Ro15-1788.
# T1 sequence (P31644 32-462): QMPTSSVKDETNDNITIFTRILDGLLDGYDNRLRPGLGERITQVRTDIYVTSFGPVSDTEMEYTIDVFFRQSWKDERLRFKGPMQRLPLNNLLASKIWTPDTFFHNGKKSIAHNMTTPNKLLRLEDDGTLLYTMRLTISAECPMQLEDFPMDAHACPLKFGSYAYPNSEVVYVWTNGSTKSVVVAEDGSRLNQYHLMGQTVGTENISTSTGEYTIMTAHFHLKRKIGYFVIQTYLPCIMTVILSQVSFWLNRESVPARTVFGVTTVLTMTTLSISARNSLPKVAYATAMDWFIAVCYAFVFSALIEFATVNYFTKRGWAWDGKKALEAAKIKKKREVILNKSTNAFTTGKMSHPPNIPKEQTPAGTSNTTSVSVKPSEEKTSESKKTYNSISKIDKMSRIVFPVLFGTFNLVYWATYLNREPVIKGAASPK
# T1 sequence (P28472 26-473 partner): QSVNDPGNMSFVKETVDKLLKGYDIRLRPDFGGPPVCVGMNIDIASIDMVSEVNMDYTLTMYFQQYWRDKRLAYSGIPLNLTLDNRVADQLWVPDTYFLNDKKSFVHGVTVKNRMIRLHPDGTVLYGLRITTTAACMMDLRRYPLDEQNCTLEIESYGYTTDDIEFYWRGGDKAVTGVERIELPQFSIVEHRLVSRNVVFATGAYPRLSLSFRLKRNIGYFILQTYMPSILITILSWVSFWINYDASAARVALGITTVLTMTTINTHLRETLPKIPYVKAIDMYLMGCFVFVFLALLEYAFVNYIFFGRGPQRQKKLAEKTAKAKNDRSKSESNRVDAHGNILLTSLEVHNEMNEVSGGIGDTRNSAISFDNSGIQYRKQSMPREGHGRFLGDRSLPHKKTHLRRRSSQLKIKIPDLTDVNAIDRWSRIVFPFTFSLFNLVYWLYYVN
# T1 sequence (P18507 40-475): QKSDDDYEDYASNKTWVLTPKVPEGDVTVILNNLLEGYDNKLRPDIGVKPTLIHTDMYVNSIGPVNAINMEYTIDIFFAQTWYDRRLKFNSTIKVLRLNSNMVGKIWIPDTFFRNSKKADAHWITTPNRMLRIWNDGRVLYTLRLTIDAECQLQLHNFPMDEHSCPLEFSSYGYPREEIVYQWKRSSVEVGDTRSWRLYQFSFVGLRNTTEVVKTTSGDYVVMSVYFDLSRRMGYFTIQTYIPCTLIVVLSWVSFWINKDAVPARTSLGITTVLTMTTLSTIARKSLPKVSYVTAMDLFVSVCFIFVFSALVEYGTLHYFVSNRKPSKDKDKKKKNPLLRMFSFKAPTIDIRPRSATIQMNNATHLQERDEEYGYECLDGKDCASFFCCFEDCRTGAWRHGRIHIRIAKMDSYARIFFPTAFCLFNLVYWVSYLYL
row,Structure (SMILES),Ki [nM]
1,"COc1nc(-c2ccc3c(=O)[nH]ncc3c2)ccc1NC(=O)c1c(-c2ccccc2)noc1C [Example 117, N-(2-Methoxy-6-(1-oxo-1,2-dihydrophthalazin-6-yl)pyridin-3-yl)-5-methyl-3-phenylisoxazole-4-carboxamide]",2.6
2,"COc1nc(-c2cnc3[nH]ccc3c2)ccc1NC(=O)c1c(-c2ccccc2)noc1C [Example 118, N-(2-Methoxy-6-(1H-pyrrolo[2,3-b]pyridin-5-yl)pyridin-3-yl)-5-methyl-3-phenylisoxazole-4-carboxamide]",137
3,"COc1nc(-c2nn[nH]n2)ccc1NC(=O)c1c(-c2ccccc2)noc1C [Example 122, N-[2-Methoxy-6-(2H-tetrazol-5-yl)-3-pyridyl]-5-methyl-3-phenyl-isoxazole-4-carboxamide]",126
4,"CCOC(=O)Cn1c(-c2ccc(NC(=O)c3c(-c4ccccc4)noc3C)c(OC)n2)cnc1C [Example 134, Ethyl 2-[5-[6-methoxy-5-[(5-methyl-3-phenyl-isoxazole-4-carbonyl)amino]-2-pyridyl]-2-methyl-imidazol-1-yl] acetate]",51.9
5,"COc1nc(-n2ccnc2)ccc1NC(=O)c1c(-c2ccccn2)noc1C [Example 146, N-(6-Imidazol-1-yl-2-methoxy-3-pyridyl)-5-methyl-3-(2-pyridyl) isoxazole-4-carboxamide]",79
6,"COc1nc(-c2cncnc2)ccc1NC(=O)c1c(C)nnn1-c1ccccc1 [Example 157, N-(2-Methoxy-6-(pyrimidin-5-yl)pyridin-3-yl)-4-methyl-1-phenyl-1H-1,2,3-triazole-5-carboxamide]",45.8
7,"COc1nc(-c2cncc(OC(F)F)c2)cnc1NC(=O)c1c(-c2ccccc2)noc1C [Example 158, N-[5-[5-(Difluoromethoxy)-3-pyridyl]-3-methoxy-pyrazin-2-yl]-5-methyl-3-phenyl-isoxazole-4-carboxamide]",8.4
8,"CNc1nc(-n2ccnc2)ccc1NC(=O)c1c(-c2ccccc2)noc1C [Example 177, N-(6-(1H-Imidazol-1-yl)-2-(methylamino)pyridin-3-yl)-5-methyl-3-phenylisoxazole-4-carboxamide]",545
9,"COc1nc(-c2ccc(CN)cc2)ccc1NC(=O)c1c(-c2ccccc2)noc1C [Example 182, N-[6-[4-(Aminomethyl)phenyl]-2-methoxy-3-pyridyl]-5-methyl-3-phenyl-isoxazole-4-carboxamide hydrochloride]",8.8
10,"COc1ncc(-c2ccc(NC(=O)c3c(-c4ccccc4)noc3C)c(OC)n2)c(C)n1 [Example 191, N-[2-Methoxy-6-(2-methoxy-4-methyl-pyrimidin-5-yl)-3-pyridyl]-5-methyl-3-phenyl-isoxazole-4-carboxamide]",1.3
11,"CNc1ncc(-c2ccc(NC(=O)c3c(-c4ccccc4)noc3C)c(OC)n2)c(C)n1 [Example 192, N-[2-Methoxy-6-[4-methyl-2-(methylamino)pyrimidin-5-yl]-3-pyridyl]-5-methyl-3-phenyl-isoxazole-4-carboxamide]",1.2
12,"COc1nc(C)c(-c2ccc(NC(=O)c3c(-c4ccccc4)noc3C)c(OC)n2)c(C)n1 [Example 193, N-[2-Methoxy-6-(2-methoxy-4,6-dimethyl-pyrimidin-5-yl)-3-pyridyl]-5-methyl-3-phenyl-isoxazole-4-carboxamide]",22.9
13,"CNc1nc(C)c(-c2ccc(NC(=O)c3c(-c4ccccc4)noc3C)c(OC)n2)c(C)n1 [Example 194, N-(6-(4,6-Dimethyl-2-(methylamino)pyrimidin-5-yl)-2-methoxypyridin-3-yl)-5-methyl-3-phenylisoxazole-4-carboxamide]",38.7
14,"COc1nc(-c2nnc3n2CCN(C)C3)ccc1NC(=O)c1c(-c2ccccc2)noc1C [Example 195, N-(2-Methoxy-6-(7-methyl-5,6,7,8-tetrahydro-[1,2,4]triazolo[4,3-a]pyrazin-3-yl)pyridin-3-yl)-5-methyl-3-phenylisoxazole-4-carboxamide]",23.5
15,"COc1cc(-c2cnc(N)nc2)ccc1NC(=O)c1c(-c2ccccc2)noc1C [Example 197, N-[4-(2-Aminopyrimidin-5-yl)-2-methoxy-phenyl]-5-methyl-3-phenyl-isoxazole-4-carboxamide hydrochloride]",0.4
16,"COc1cc(-c2cnc(N)cn2)ccc1NC(=O)c1c(-c2ccccc2)noc1C [Example 198, N-[4-(5-Aminopyrazin-2-yl)-2-methoxy-phenyl]-5-methyl-3-phenyl-isoxazole-4-carboxamide hydrochloride]",4.3
17,"COc1nc(-c2cnc(C(C)(C)O)nc2)ccc1NC(=O)c1c(-c2ccccc2)noc1C [Example 201, N-[6-[2-(1-Hydroxy-1-methyl-ethyl)pyrimidin-5-yl]-2-methoxy-3-pyridyl]-5-methyl-3-phenyl-isoxazole-4-carboxamide]",35.4
18,"COc1nc(-c2cnc(CN)nc2)ccc1NC(=O)c1c(-c2ccccn2)nnn1C [Example 202, N-(6-(2-(Aminomethyl)pyrimidin-5-yl)-2-methoxypyridin-3-yl)-1-methyl-4-(pyridin-2-yl)-1H-1,2,3-triazole-5-carboxamide hydrochloride]",77.8
19,"COc1nc(-c2cnc(CN)nc2)ccc1NC(=O)c1c(-c2ccc(Cl)cn2)nnn1C [Example 203, N-(6-(2-(Aminomethyl)pyrimidine-5-yl)-2-methoxypyridin-3-yl)-4-(5-chloropyridin-2-yl)-1-methyl-1H-1,2,3-triazole-5-carboxamide hydrochloride]",17
20,"COc1nc(-c2cnoc2)ccc1NC(=O)c1c(-c2ccc(F)cc2)noc1N1CCC1 [Example 210, 5-(Azetidin-1-yl)-3-(4-fluorophenyl)-N-(6-isoxazol-4-yl-2-methoxy-3-pyridyl) isoxazole-4-carboxamide]",13.7
21,"COc1nc(-c2cnc(CN)nc2)ccc1NC(=O)c1c(-c2ccc(F)cc2)noc1NCCCCl [Example 211, N-[6-[2-(Aminomethyl)pyrimidin-5-yl]-2-methoxy-3-pyridyl]-5-(3-chloropropylamino)-3-(4-fluorophenyl) isoxazole-4-carboxamide hydrochloride]",1.3
22,"Cc1onc(-c2ccccc2)c1C(=O)Nc1ccc(-n2ccnc2)[nH]c1=O [Example 212, N-(6-Imidazol-1-yl-2-oxo-1H-pyridin-3-yl)-5-methyl-3-phenyl-isoxazole-4-carboxamide]",313
23,"COc1nc(-c2ccc(C=O)cc2)ccc1NC(=O)c1c(-c2ccccc2)noc1C [Example 220, N-[6-(4-formylphenyl)-2-methoxy-3-pyridyl]-5-methyl-3-phenyl-isoxazole-4-carboxamide]",3.4
24,"COc1nc(-c2ccc(CCl)cc2)ccc1NC(=O)c1c(-c2ccccc2)noc1C [Example 224, N-[6-[4-(chloromethyl)phenyl]-2-methoxy-3-pyridyl]-5-methyl-3-phenyl-isoxazole-4-carboxamide]",220
25,"COc1nc(-c2ccc(CN3CCOCC3)cc2)ccc1NC(=O)c1c(-c2ccccc2)noc1C [Example 225, N-[2-methoxy-6-[4-(morpholinomethyl)phenyl]-3-pyridyl]-5-methyl-3-phenyl-isoxazole-4-carboxamide]",7.7
26,"COc1nc(-c2ccc(CN3CC4(COC4)C3)cc2)ccc1NC(=O)c1c(-c2ccccc2)noc1C [Example 226, N-[2-methoxy-6-[4-(2-oxa-6-azaspiro[3.3]heptan-6-ylmethyl)phenyl]-3-pyridyl]-5-methyl-3-phenyl-isoxazole-4-carboxamide]",3.3
27,"Cc1onc(-c2ccccc2)c1C(=O)Nc1ccc(-c2cnoc2)nc1OC(C)C [Example 227, N-(2-isopropoxy-6-(isoxazol-4-yl)pyridin-3-yl)-5-methyl-3-phenyl-isoxazole-4-carboxamide]",0.5
28,"COc1nc(-c2ccc(CN3CC4COCC4C3)cc2)ccc1NC(=O)c1c(-c2ccccc2)noc1C (stereo not shown) [Example 233, N-(2-methoxy-6-(4-((tetrahydro-1H-furo[3,4-c]pyrrol-5 (3H)-yl)methyl)phenyl)pyridin-3-yl)-5-methyl-3-phenylisoxazole-4-carboxamide]",7
